ChEMBL document CHEMBL5143687, “Design, synthesis and biological evaluation of hydrogen sulfide-releasing isochroman-4-one derivatives as new antihypertensive agent candidates” (Bioorg Med Chem, 2022)

How the values were obtained:
Aortic ring [1] = test: Vasorelaxant activity in Sprague-Dawley rat aortic rings assessed as reduction in noradrenaline-induced contractions at 10 uM relative to control; format: functional, Thoracic aorta; parameters: scale not given: the % may be the effect or the level left
Aortic ring [2] = test: Vasorelaxant activity in Sprague-Dawley rat aortic rings assessed as reduction in noradrenaline-induced contractions at 100 uM relative to control; format: functional, Thoracic aorta; parameters: scale not given: the % may be the effect or the level left
[3] = Prodrug conversion in sodium phosphate buffer assessed as H2S release in presence of L-cysteine by UV-Vis spectrophotometry; format: ADME
Aortic ring [4] = test: Vasorelaxant activity in Sprague-Dawley rat aortic rings assessed as reduction in noradrenaline-induced contractions; format: functional, tissue-based; details: Thoracic aorta, DDE = dose-dependent effect
CHO = test: Cytotoxicity against CHO cells assessed as cell viability at 100 uM after 24 hrs MTT assay; format: toxicity, cell-based, Cricetulus griseus; details: chinese hamster
Rattus norvegicus [5] = test: Antihypertensive activity in spontaneous hypertensive rat model assessed as systolic blood pressure at 80 mg/kg, po measured after 8 hr by tail cuff method (reference value: 186.1 +/- 4.6 mmHg); format: functional
Rattus norvegicus [6] = test: Antihypertensive activity in spontaneous hypertensive rat model assessed as systolic blood pressure at 80 mg/kg, po measured after 2 hr by tail cuff method (reference value: 186.1 +/- 4.6 mmHg); format: functional
Rattus norvegicus [7] = test: Antihypertensive activity in spontaneous hypertensive rat model assessed as systolic blood pressure at 80 mg/kg, po measured after 6 hr by tail cuff method (reference value: 186.1 +/- 4.6 mmHg); format: functional
Rattus norvegicus [8] = test: Antihypertensive activity in spontaneous hypertensive rat model assessed as systolic blood pressure at 80 mg/kg, po measured after 4 hr by tail cuff method (reference value: 186.1 +/- 4.6 mmHg); format: functional
Rattus norvegicus [9] = test: Antihypertensive activity in spontaneous hypertensive rat model assessed as systolic blood pressure at 80 mg/kg, po measured after 1 hr by tail cuff method (reference value: 186.1 +/- 4.6 mmHg); format: functional
Rattus norvegicus [10] = test: Antihypertensive activity in spontaneous hypertensive rat model assessed as systolic blood pressure at 40 mg/kg, po measured after 2 hr by tail cuff method (reference value: 186.1 +/- 4.6 mmHg); format: functional
Rattus norvegicus [11] = test: Antihypertensive activity in spontaneous hypertensive rat model assessed as systolic blood pressure at 40 mg/kg, po measured after 6 hr by tail cuff method (reference value: 186.1 +/- 4.6 mmHg); format: functional
Rattus norvegicus [12] = test: Antihypertensive activity in spontaneous hypertensive rat model assessed as systolic blood pressure at 40 mg/kg, po measured after 8 hr by tail cuff method (reference value: 186.1 +/- 4.6 mmHg); format: functional
Rattus norvegicus [13] = test: Antihypertensive activity in spontaneous hypertensive rat model assessed as systolic blood pressure at 40 mg/kg, po measured after 4 hr by tail cuff method (reference value: 186.1 +/- 4.6 mmHg); format: functional
Rattus norvegicus [14] = test: Antihypertensive activity in spontaneous hypertensive rat model assessed as systolic blood pressure at 40 mg/kg, po measured after 1 hr by tail cuff method (reference value: 186.1 +/- 4.6 mmHg); format: functional

| SMILES | Activity (Aortic ring [1]) [%] | Activity (Aortic ring [2]) [%] | also measured |
| --- | --- | --- | --- |
| COc1ccc2c(c1OCCCCCCCCCCCCOc1ccc(C(N)=S)cc1)COC(C)C2=O (centres undefined) | 12.6 | 25 | – |
| COc1cc2c(cc1OCCCCCOc1ccc(C(N)=S)cc1)C(=O)C(C)OC2 (centres undefined) | 6.6 | 28.2 | – |
| COc1ccc2c(c1OCCCCCCOc1ccc(C(N)=S)cc1)COC(C)C2=O (centres undefined) | 20 | 31.1 | – |
| COc1ccc2c(c1OCCOc1ccc(-c3cc(=S)ss3)cc1)COC(C)C2=O (centres undefined) | 5.5 | 18.2 | – |
| [Na+].[SH-] [SODIUM HYDROSULFIDE] | 18.7 | 52.9 | – |
| COc1ccc2c(c1OCCCCOc1ccc(C(N)=S)cc1)COC(C)C2=O (centres undefined) | 2.9 | 35.1 | – |
| COc1cc2c(cc1OCCCCCCCCCCCCOc1ccc(C(N)=S)cc1)C(=O)C(C)OC2 (centres undefined) | 2.2 | 12.5 | – |
| COc1ccc2c(c1OCCCCCCCCOc1ccc(C(N)=S)cc1)COC(C)C2=O (centres undefined) | 25 | 56.9 | Activity [3]: Active; Activity (Aortic ring [4]): Dde; Activity (CHO): Non-Toxic |
| COc1cc2c(cc1OCCCCCCCCOc1ccc(C(N)=S)cc1)C(=O)C(C)OC2 (centres undefined) | 19.9 | 31.2 | – |
| COc1ccc2c(c1OCCCOc1ccc(-c3cc(=S)ss3)cc1)COC(C)C2=O (centres undefined) | 5.4 | 9.2 | – |
| COc1ccc2c(c1OCCCOc1ccc(C(N)=S)cc1)COC(C)C2=O (centres undefined) | 3.7 | 15.7 | – |
| COc1ccc2c(c1OCCOc1ccc(C(N)=S)cc1)COC(C)C2=O (centres undefined) | 19.8 | 31.4 | – |
| CC1OCc2c(ccc(O)c2O)C1=O (racemic) | – | – | Activity (Rattus norvegicus [5]): 150.6 mmHg; Activity (Rattus norvegicus [6]): 165.4 mmHg; Activity (Rattus norvegicus [7]): 140.1 mmHg; Activity (Rattus norvegicus [8]): 151.5 mmHg; Activity (Rattus norvegicus [9]): 170.9 mmHg |
| COc1ccccc1N1CCN(CC(O)COc2cccc3ccccc23)CC1 (centres undefined) [NAFTOPIDIL] | – | – | Activity (Rattus norvegicus [10]): 148.1 mmHg; Activity (Rattus norvegicus [11]): 158.2 mmHg; Activity (Rattus norvegicus [12]): 170.5 mmHg; Activity (Rattus norvegicus [13]): 153.7 mmHg; Activity (Rattus norvegicus [14]): 161.4 mmHg |
| COc1cc2c(cc1OCCCCOc1ccc(C(N)=S)cc1)C(=O)C(C)OC2 (centres undefined) | 5.1 | 4.3 | – |
| COc1cc2c(cc1OCCCOc1ccc(C(N)=S)cc1)C(=O)C(C)OC2 (centres undefined) | 45.4 | 61.8 | Activity (Aortic ring [4]): Dde; Activity (CHO): Non-Toxic |
| NC(=S)c1ccc(O)cc1 | 1.7 | 17.3 | – |
| COc1ccc2c(c1OCCCCCOc1ccc(C(N)=S)cc1)COC(C)C2=O (centres undefined) | 30.2 | 55.4 | Activity [3]: Active; Activity (Aortic ring [4]): Dde; Activity (CHO): Non-Toxic |
| COc1cc2c(cc1O)C(=O)C(C)OC2 (centres undefined) | 0.4 | 6.5 | – |
| COc1cc2c(cc1OCCCCCCOc1ccc(C(N)=S)cc1)C(=O)C(C)OC2 (centres undefined) | 49.6 | 66.7 | Activity (Rattus norvegicus [5]): 169.4 mmHg; Activity (Rattus norvegicus [6]): 137.4 mmHg; Activity [3]: Active; Activity (Rattus norvegicus [7]): 153.6 mmHg; Activity (Rattus norvegicus [8]): 142.2 mmHg; Activity (Aortic ring [4]): Dde; Activity (Rattus norvegicus [9]): 170.2 mmHg; Activity (CHO): Non-Toxic |
| COc1ccc2c(c1O)COC(C)C2=O (centres undefined) | 4.3 | 50.7 | – |
